Experimental data published in publication PMC12381739, “Druglike Molecular Degraders of the Oncogenic RNA-Binding Protein HuR” (JACS Au, 2025).

Legend:
Bcl2 and FOXQ1 mRNA = assay: mRNA RT-qPCR of Bcl2 and FOXQ1 in MCF-7 cells; assay type: cell-based, human; details: MCF-7, any of the concentrations evaluated
Experimental: MCF-7 cells were seeded into 12-well plates (∼150,000 cells per well) at 60–70% confluency incubated for 12 h. The cells were then treated with different synthesized compounds at the indicated concentrations or with vehicle control for 24 and 48 h. After treatment, total RNA was extracted using the QuickRNA Miniprep Kit (Zymo Research) according to the manufacturer’s protocol, including DNase I treatment. Reverse transcription was performed on 1 μg of total RNA using the qScript cDNA Synthesis Kit (Quantabio) following the manufacturer’s instructions. Approximately 30 ng of cDNA were used for each qPCR reaction, which was carried out using the Luna Universal qPCR Master Mix (New England BioLabs, cat# E3010G) on a CFX Opus 384 Real-Time PCR System. Relative expression levels of Bcl-2 and FOXQ1 were calculated by normalizing to GAPDH expression using the ΔΔCt method.

MDA-MB-231 spheroids = assay: 3D spheroid growth model, MDA-MB-231; assay type: cell-based, human
Experimental: (§1) MDA-MB-231 and MCF-7 breast cancer cells were cultured in standard tissue culture plates using RPMI or DMEM media supplemented with 10% fetal bovine serum (FBS) and 1% penicillin–streptomycin until they reached approximately 80% confluency. Cells were washed with PBS and dissociated using 0.25% Trypsin-EDTA, followed by neutralization with complete medium. Viability was assessed via trypan blue exclusion, ensuring >90% viable cells. For spheroid formation, cells were seeded into ultralow attachment 96-well plates at a density of 5000 cells/well in 200 μL of complete medium. Plates were centrifuged at 1000 rpm for 5 min to promote aggregation and incubated at 37 °C in a humidified 5% CO2 atmosphere. Spheroid formation was monitored daily using an inverted microscope. Media exchanges or treatment additions were performed by carefully aspirating 100 μL of medium from each well and replacing it with an equal volume of fresh or treatment-containing medium. Differences in spheroid characteristics between the two cell lines were noted: MCF-7 cells, being epithelial and E-cadherin positive, formed compact, uniform spheroids at lower seeding densities (1000–5000 cells/well) over 3–5 days, whereas MDA-MB-231 cells, which lack E-cadherin, required higher densities (5000–10,000 cells/well) and formed looser aggregates typically within 2–4 days. All experiments were performed in duplicates. Surface area was calculated using Image View’s multipoint connection function.

HuR = HuR (Homo sapiens, UniProt Q15717); assay: HuR protein expression by western blot in MCF-7 cells; assay type: cell-based; parameters: endogenous in cells; host or cells: MCF-7
Source text: Michigan Cancer Foundation-7 (MCF-7) cells were chosen due to their documented overexpression of HuR, which has been linked to cancer pathogenicity in this specific cell line. , Consequently, reducing HuR expression to physiologically normal levels is considered a potential strategy for novel anticancer therapies targeting breast cancers associated with HuR overexpression.
Total protein was extracted using RIPA cell lysis buffer (BioPrep) containing a protease inhibitor, and protein concentration was measured using the BCA protein assay (Sigma-Aldrich) according to the manufacturer’s protocol. Approximately 30 μg of total protein were resolved on a 12% SDS-acrylamide gel and transferred to a PVDF membrane (Immobilon FL transfer membrane; Merck). The membrane was washed with 1× Tris-buffered saline (TBS) containing 0.1% (v/v) Tween-20 (TBST; Tris-base, pH 7.6, NaCl, and Tween-20) and blocked in 1× TBST containing 5% (w/v) BSA for 2 h at room temperature. The membrane was then incubated overnight at 4 °C with primary antibodies: a 1:1000 dilution of rabbit anti-ELAVL1/HuR (Cell Signaling Technology, #12582), a 1:1000 dilution of mouse anti-Bcl2 (Cell Signaling Technology, #15071), or a 1:10,000 dilution of rabbit anti-Vinculin (Cell Signaling Technology, #13901) in 1× TBST containing 5% (w/v) BSA. Following primary antibody incubation, the membrane was washed with 1× TBST and incubated with a 1:10,000 dilution of the appropriate horseradish-peroxidase-conjugated secondary antibody (antirabbit IgG: Cell Signaling, #7074 or antimouse IgG: Cell Signaling, #7076) at room temperature for 2 h. After washing three times with 1X TBST (10 min per wash), protein bands were visualized using Clear Band ECL Substrate (Gene Bio-Application) on the Azure C300 Imaging System. The fold change in the expression of the target proteins (HuR or Bcl2) was calculated by normalizing the band intensity to the Vinculin band intensity using ImageJ.

MCF-7 spheroids = assay: 3D spheroid growth model, MCF-7; assay type: cell-based, human
Experimental: as §1

HuR RRM1/2 = molecular target: T1, HuR RRM1/2 (Homo sapiens, UniProt Q15717); assay: Fluorescence polarization (FP) displacement assay, 5′ FAM-labeled RNA probe from HuR; details: displacement of 5′-FAM RNA probe UAUUUAUUUA (20 nM) from 500 nM HuR RRM1/2; read-out: Binding affinity towards HuR in FP assay (Kd)
T1 construct: 20 nM of the 5′-FAM RNA probe and 500 nM of HuR RRM1/2
Experimental: Following the synthesis, our initial aim was to ensure that the new derivatives retained their affinity for HuR’s RNA-binding pocket. Thus, a binding evaluation assay was conducted. As previously reported, the RNA-binding pocket of HuR specifically recognizes the UTR sequences of mRNAs, with […] identified as a common binding motif. To evaluate the binding of each degrader, we conducted a fluorescence-based assay utilizing a 5-carboxyfluorescein (5′ FAM)-labeled reporter. This fluorescence polarization (FP) assay is based on the displacement of the 5′ FAM-labeled mRNA from HuR’s RNA-binding pocket, which provides insight into both the binding affinity of the degrader and its capacity to disrupt the HuR-mRNA interaction, thereby serving as a means of validating target engagement. When the 5′ FAM-RNA probe is bound to HuR, it forms a binary complex, resulting in slower rotational movement and a consequently high FP signal. However, when either molecule displaces the 5′ FAM-labeled RNA, the probe is released into the solution, where it undergoes rapid rotation, leading to a significant reduction in the FP signal (Figure S3). This decrease in FP serves as a quantitative measure of the degrader’s ability to compete with mRNA for HuR binding. […] As mentioned above, we synthesized a series of HuR ligand derivatives featuring indole and benzothiophene cores, along with ester and carboxylic acid functional groups.
As previously reported, the sequence of the fluorescently labeled (5′-FAM) RNA probe is […]. The assays were performed in PBS buffer (20 mM sodium phosphate, 150 mM NaCl, 1 mM dithiothreitol, 0.05% PLURONIC-127, 15% DMSO) at 293 K. Fluorescence was measured using the Synergy H1 Hybrid Multi-Mode Microplate Reader (Biotek, Agilent) with excitation and emission wavelengths set to 485 and 528 nm, respectively. Each well of a 384-well plate contained 20 nM of the 5′-FAM RNA probe and 500 nM of HuR RRM1/2. Compounds were tested at eight concentrations (0.1 nM–100 μM), with compound 10 serving as a positive control and PBS as the negative control. The protein-mRNA mixture was incubated for 1.5 h to allow for binding interactions. After this incubation, the compounds were added, and the mixture was incubated for an additional hour. The FP emission of the resulting HuR-compound complex was then recorded. The percent inhibition of binding was calculated by comparing the FP values of experimental conditions to the PBS control. The FP value corresponding to the HuR-RNA complex in the presence of DMSO was used as the 100% complexation reference, while the FP value of the labeled RNA alone was set as 0% complexation. The dissociation constant (K d) for the compound-HuR binding interaction was determined by fitting the dose–response curve to specific binding models using Prism 10.2.2. All experiments were performed in triplicate.

GFP-HuR = molecular target: T2, GFP-HuR (Homo sapiens, UniProt Q15717); assay: GFP-HuR reporter assay; assay type: cell-based; details: HEK 293 cells, 10 μM, 24 h
T2 construct: host or cells: HEK-293
T2 sequence (Q15717 whole entry): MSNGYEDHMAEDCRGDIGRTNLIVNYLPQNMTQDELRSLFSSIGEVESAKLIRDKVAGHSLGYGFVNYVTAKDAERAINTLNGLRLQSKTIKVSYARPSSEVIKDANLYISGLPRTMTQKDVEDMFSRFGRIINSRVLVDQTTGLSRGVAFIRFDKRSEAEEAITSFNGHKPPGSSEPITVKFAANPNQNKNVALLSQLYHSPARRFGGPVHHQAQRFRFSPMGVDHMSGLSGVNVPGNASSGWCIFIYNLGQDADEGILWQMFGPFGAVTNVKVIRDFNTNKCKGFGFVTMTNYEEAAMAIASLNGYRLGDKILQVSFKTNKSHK
Experimental: To assess the effects of the HuR degraders in cells in a high-throughput fashion, a GFP-HuR reporter assay was utilized. In this assay, HuR was fused with green fluorescent protein (GFP), facilitating the monitoring of its expression and stability through fluorescence intensity (Figure A). A decrease in the GFP signal indicates HuR degradation.
HEK-293 cells were cultured in 100 mm diameter plates to approximately 70% confluency and transfected with 15 μg of GFP-HuR (ELAVL1) reporter plasmid (Addgene #121162) in a 1:2 ratio with the PEI transfection reagent (Med Chem Express, HY-K2014) at a concentration of 1 mg/mL, following the manufacturer’s recommended protocol. After 6 h of transfection, the cells were reseeded into 96-well plates. […] Fluorescence measurements were taken using the Synergy H1 Hybrid Multi-Mode Microplate Reader (Biotek, Agilent) with excitation and emission wavelengths set to 479 and 520 nm, respectively, according to the manufacturer’s instructions. All experiments were performed in triplicate.

T1 sequence (Q15717 18-186 limits assumed): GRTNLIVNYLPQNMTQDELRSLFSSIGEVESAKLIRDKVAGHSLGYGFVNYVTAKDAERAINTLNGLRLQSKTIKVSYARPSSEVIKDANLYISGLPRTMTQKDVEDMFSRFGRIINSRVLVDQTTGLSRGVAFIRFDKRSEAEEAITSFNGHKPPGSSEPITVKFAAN
Sequence of HuR (Q15717 whole entry): as the sequence (Q15717 whole entry) above

| Kd (HuR RRM1/2) [µM] | Structure (SMILES) | also measured |
| --- | --- | --- |
| 0.0095 | O=C1CCC(N2C(=O)c3cccc(NCc4cn(-c5ccc6[nH]c(C(=O)O)cc6c5)nn4)c3C2=O)C(=O)N1 (centres unmarked) [PRO-HuR1] | – |
| 0.0101 | O=C1CCC(N2C(=O)c3cccc(NCCc4cn(CCCC(=O)Nc5ccc6[nH]c(C(=O)O)cc6c5)nn4)c3C2=O)C(=O)N1 (centres unmarked) [PRO-HuR2] | – |
| 0.0106 | CCOC(=O)c1cc2cc(-n3cc(CNc4cccc5c4C(=O)N(C4CCC(=O)NC4=O)C5=O)nn3)ccc2s1 (centres unmarked) [PRO-HuR4] | time-dependent response of HuR degradation (HuR; MCF-7, 10 μM): did not; HuR degradation ability (HuR; MCF-7, 10 μM, 24 h): higher degradation efficiency |
| 0.0065 | CCOC(=O)c1cc2cc(NC(=O)C3CCN(c4cccc5c4C(=O)N(C4CCC(=O)NC4=O)C5=O)CC3)ccc2s1 (centres unmarked) [PRO-HuR5] | – |
| 9.39 | CCOC(=O)c1cc2cc(NC(=O)CCC(=O)N3CCN(c4cccc5c4C(=O)N(C4CCC(=O)NC4=O)C5=O)CC3)ccc2s1 (centres unmarked) [PRO-HuR6] | – |
| 0.0458 | CCOC(=O)c1cc2cc(-n3cc(-c4ccc(C(=O)NCCNc5cccc6c5C(=O)N(C5CCC(=O)NC5=O)C6=O)cc4)nn3)ccc2s1 (centres unmarked) [PRO-HuR7] | – |
| 6.43 | CCOC(=O)c1cc2cc(NC(=O)C3CN(c4cccc5c4C(=O)N(C4CCC(=O)NC4=O)C5=O)C3)ccc2s1 (centres unmarked) [PRO-HuR8] | – |

The next lines start with the compound.

| Structure (SMILES) | Kd (HuR RRM1/2) [µM] | also measured |
| --- | --- | --- |
| CCOC(=O)c1cc2cc(N)ccc2[nH]1 [Binder 1] | – | RNA levels of Bcl2 and FOXQ1 with HuR ligands (Bcl2 and FOXQ1 mRNA): no effect was observed; day at which a decrease in spheroid surface area was first observed (MDA-MB-231 spheroids): 9 days; spheroid growth (MDA-MB-231 spheroids; 10 nM): no significant impact on spheroid growth; HuR expression after treatment with HuR ligands alone (HuR; MCF-7, Binder 1 1 µM 24 h, Binder 2 10 µM 48 h (Figure S8)): No significant decrease in HuR expression; day at which a decrease in spheroid surface area was first observed (MCF-7 spheroids): 14 days; spheroid growth (MCF-7 spheroids; 10 nM): no significant impact on spheroid growth |
| CCOC(=O)c1cc2cc(NC(=O)/C=C/C(=O)c3ccc(OC)cc3)ccc2s1 [MG-HuR1] | 1.08 | – |
| CCOC(=O)c1cc2cc(NC(=O)/C=C/c3ccc(C(F)(F)F)cc3)ccc2[nH]1 [MG-HuR3] | 0.0093 | – |
| CCOC(=O)c1cc2cc(NC(=O)/C=C/c3ccc(C(F)(F)F)cc3)ccc2s1 [MG-HuR4] | 1.49 | – |
| O=C(/C=C/c1ccc(C(F)(F)F)cc1)Nc1ccc2sc(C(=O)O)cc2c1 [MG-HuR5] | 0.818 | GFP-HuR fluorescence intensity (GFP-HuR): significant reduction in fluorescence intensity |
